Measurements reported in patent US20180031580A1, “USE OF IGF-1 AS PROGNOSTIC FACTOR IN CALCIFICATION OF AORTIC VALVES” (THE ASAN FOUNDATION, priority 2015, published 2018).

System: aortic valve vascular smooth muscle tissue
Assay: ALP staining of aortic valve vascular smooth muscle tissue, osteocytogenesis level
Assay type: in vivo, mice
Details: wild-type or eNOS-deficient mice treated with IGF-1 alone; FIG. 2a
Procedure: Wild-type mice or eNOS-deficient mice which are animal models with the aortic valve calcification were treated with insulin-like growth factor type 1 (IGF-1) alone or treated with dipeptidyl-peptidase 4 (DPP-4) and IGF-1 at the same time. Then, ALP staining was performed on the aortic valve vascular smooth muscle tissue, thereby comparing the […] level of tissue (FIG. 2a). Here, the aortic valve vascular smooth muscle tissue of the wild-type mice treated with nothing or the eNOS-deficient mice was used as a control group.
FIG. 2a are an image and a graph showing verification of the effect of DPP-4 on an action of IGF-1 inhibiting osteocytogenesis in the aortic valve vascular smooth muscle tissue of the wild-type mice or the eNOS-deficient mice.

IGF-1: polypeptide having a size of about 7.5 kDa present in a plasma of mammals; SEQ ID NO: 1
osteocytogenesis of aortic valve vascular smooth muscle tissue (ALP staining): tended to be alleviated
